Consider three substances from US7741283B2, “Compositions and methods for inhibiting cell proliferation” (St. Louis University, priority 2003, dated 2010).

“Also recorded” adds a separate entry of the source.

In assay [1] the test system is IRS-2. Nature of the assay: 32P metabolic labeling and immunoprecipitation of IRS-2, MB102-9 cells. Type of assay: cell-based, mink. Conditions: MB102-9 cells (αIβII); IGFBP-3 1 μg/ml, GM-CSF 1 nM.
Assay [2] relates to IRS-2. The assay can be described thus: 32P metabolic labeling and immunoprecipitation of IRS-2, MB102-16 cells. Type of assay: cell-based, mink. The settings on record: MB102-16 cells (αIβI); IGFBP-3 1 μg/ml, GM-CSF 1 nM.
In assay [3] the test system is TβR-V purified from bovine liver plasma membranes. Nature of the assay: 125I-IGFBP-3 / 125I-TGF-β1 affinity labeling of purified TβR-V. The settings on record: DSS, β1^25(41-65) 20 μM, RAP 10-40 μg/ml, α2M* 100 nM, lactoferrin 100 nM. Type of assay: binding.
In another assay the test system is TβR-V. The assay can be described thus: 125I-ligand affinity labeling (binding and cross-linking) in Mv1Lu cells. Also noted: species or system mink. On the procedure: FIG. 2 depicts the effects of RAP on ^125I-IGFBP-3 (A) and ^125I-TGF-β1 binding (B) to TβR-V and on IGFBP-3-induced inhibition of DNA synthesis (C) in Mv1Lu cells. (A,B) Cells were incubated with ^125I-IGFBP-3 (10 nM) or ^125I-TGF-β1 (0.1 nM) in the presence of various concentrations of RAP as indicated. After 2.5 hr at 0° C., the ^125I-IGFBP-3-TβR-V complex or ^125I-TGF-β1-TGF-β receptor complexes were cross-linked by DSS and analyzed by autoradiography. The relative intensity of the ^125I-IGFBP-3-TβR-V complex or ^125I-TGF-β1-TGF-β receptor complex on the dried gel was quantified by a PhosphoImager. The arrow indicates the location of the ^125I-TGF-β-TβR-V complex or the ^125I-IGFBP-3-TβR-V complex. The bracket indicates the locations of the ^125I-TGF-β1-TβR-III and -TβR-II complexes. The ^125I-TGF-β1-TβR-I complex co-migrated with the dye front. The ^125I-TGF-β1-TβR-II complex can be seen upon longer time exposure of the autoradiogram. (C) Cells were incubated with various concentrations, as indicated, of IGFBP-3 and GST-RAP (100 μg/ml). […] After further incubation for 10 hr, the DNA synthesis of cells was determined by measuring [methyl-^3H] thymidine incorporation into cellular DNA. […]
Mv1Lu cells are a well-established model system for investigating TGF-β activities and receptor functions. […] After further incubation for 10 hr, DNA synthesis of the cells was determined.

The next assay concerns Mv1Lu cells. Nature of the assay: [methyl-3H] thymidine incorporation (DNA synthesis), Mv1Lu cells. Type of assay: cell-based, mink. (In general: Uptake of a labelled nucleoside into DNA is a usual measure of proliferation.)
For another assay, the system named is DR26 cells. The assay can be described thus: [methyl-3H] thymidine incorporation, DR26 cells. Type of assay: cell-based, mink. The settings on record: DR26 cells, in the presence of insulin. On the procedure:
(A,B) DR26 cells were incubated with various concentrations as indicated of IGFBP-3 in the absence (A) and presence (B) of various concentrations of insulin. After 18 hr at 37° C., the [methyl-^3H] thymidine incorporation into cellular DNA was determined. (C,D,E) Mv1Lu, DR26 and R1B cells metabolically labeled with ^[…]-orthophosphate for 2 hr were treated with IGFBP-3 (1:g/ml) or insulin (10 nM) (C). DR26 cells metabolically labeled with ^[…]-orthophosphate for 2 hr were treated with or without IGFBP-3 (1 μg/ml) in the presence of various concentrations of TGF-β1 as indicated (D). Mv1Lu cells expressing αIβI and αIβII chimeric receptors (MB102-16 and MB102-9 cells, respectively) metabolically labeled with ^[…]-orthophosphate for 2 hr were treated with or without IGFBP-3 (1 μg/ml) or GM-CSF (1 nM) (E). After 2 hr at 37° C. (in the absence of […]-orthophosphate in the medium), the ^[…]-labeled IRS-2 was immunoprecipitated and analyzed by 7.5% SDS-PAGE and autoradiography. […]
Mv1Lu cells were plated on 24-well clustered dishes and incubated with various concentrations of TGF-β1 or IGFBP-3 in DMEM containing 0.1% fetal calf serum. After incubation at 37° C. for 18 hr, the cells were pulse-labeled with 1 μCi of [methyl-^3H]thymidine at 37° C. for 2 hr and the [methyl-^3H] thymidine incorporation into cellular DNA was determined as described previously (59). […]

Another assay concerns 32D/IR/IRS-2 cells. Nature of the assay: [methyl-3H] thymidine incorporation, 32D/IR/IRS-2 cells. Type of assay: cell-based, murine. The settings on record: insulin 10 nM.
Assay [4] relates to IRS-2. Nature of the assay: 32P metabolic labeling and immunoprecipitation of IRS-2, Mv1Lu cells. Type of assay: cell-based, mink. The settings on record: Mv1Lu, IGFBP-3 1 μg/ml […] then factor 10 nM (TGF-β1 20 pM) 0.5 hr.

In the case of “GM-CSF: granulocyte/macrophage colony-stimulating factor”, the “Specific dephosphorylation (mobility change) of IRS-2” value in the assay with IRS-2 [1] is given as “induce moderate specific dephosphorylation”; in the assay with IRS-2 [2], “only induced specific dephosphorylation (electrophoretic mobility change) of IRS-2 in MB102-9 cells”.

Turning to “RAP: receptor-associated protein, an LRP antagonist which blocks binding of all known ligands to LRP”, the “^125I-TGF-β1 binding to purified TβR-V” value in assay [3] (0.1 nM 125I-TGF-β1, […] 0° C.) is listed as “appeared to inhibit”. Further, the “^125I-IGFBP-3 binding to purified TβR-V” value in assay [3] (10 nM 125I-IGFBP-3, […] 0° C.) is reported as “appeared to inhibit”. Also, in the assay with TβR-V (0.1 nM 125I-TGF-β1), the “^125I-TGF-β1 binding to TβR-V and TβR-III” value is “only partially inhibited”. The “IC50, inhibition of ^125I-IGFBP-3 binding to TβR-V” value in the assay on TβR-V (10 nM 125I-IGFBP-3) is about 5 µg/mL.

As to insulin: insulin [reference compound], the “Blocking of IGFBP-3-induced growth inhibition” value in the assay with Mv1Lu cells (Mv1Lu cells) was “completely blocked”. Moreover, the “Effect alone on TGF-β1-induced inhibition of DNA synthesis” value in the assay with Mv1Lu cells (insulin 10 nM or cyclic RGD peptide 0.01 μg/ml alone) is recorded as “did not block; also recorded: Neither insulin (10 nM) nor the cyclic RGD peptide (0.01 μg/ml) alone affected”. In addition, in the assay on DR26 cells, the “Reversal of IGFBP-3 inhibition of DNA synthesis” value is “completely reversed”. In addition, in the assay with 32D/IR/IRS-2 cells, the “Effect on IGFBP-3-induced growth inhibition” value is “capable of blocking” and the “Effect on TGF-β1-induced growth inhibition” value was “partially reversing”. In addition, the “Blocking of IGFBP-3-induced specific dephosphorylation of IRS-2 by growth factors/cytokines” value with IRS-2 [4] is “blocked”.
